# Measurements: patent US8962660B2 (Bristol-Myers Squibb Company, priority 2013, dated 2015)
# Target: T1, human GPR120 (Homo sapiens, UniProt Q5NUL3)
# T1 construct: expressed in transfected cells; host or cells: CHOA12 cells
# T1 sequence (Q5NUL3 1-361): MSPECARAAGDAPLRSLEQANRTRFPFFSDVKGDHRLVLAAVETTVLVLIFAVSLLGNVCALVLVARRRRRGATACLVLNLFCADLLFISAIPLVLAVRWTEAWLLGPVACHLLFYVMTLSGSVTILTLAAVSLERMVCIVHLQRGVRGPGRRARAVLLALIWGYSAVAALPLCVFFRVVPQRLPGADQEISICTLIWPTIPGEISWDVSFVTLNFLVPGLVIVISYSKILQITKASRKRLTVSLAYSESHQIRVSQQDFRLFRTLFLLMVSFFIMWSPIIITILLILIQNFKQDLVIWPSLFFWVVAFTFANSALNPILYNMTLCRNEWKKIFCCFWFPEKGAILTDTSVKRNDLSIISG
# Test: GPR120 pERK AlphaScreen SureFire assay (human)
# Assay type: cell-based
# Settings: CHO cells stably transfected with short form of human GPR120
# Source text: GPR120 activity was monitored by measuring phosphorylation of ERK (pERK), since G protein receptors are known to activate the ERK signaling cascade either directly and/or through recruitment of arrestin that serves as a scaffold for downstream signaling events.
# GPR120 pERK AlphaScreen SureFire Assay
# The human and mouse GPR120-mediated intracellular phosphorylated ERK assays were established using CHOA12 cells stably transfected with the short form of human or mouse GPR120 receptor. Cells were cultured in growth medium consisting of F-12 media (Invitrogen Cat. #11765) with 5% Charcoal/Dextran FBS (Invitrogen Cat. #12676-029), 500 μg/mL GENETICIN® (Life Technologies Cat. #10131-027) and 250 μg/mL Zeocin (Invitrogen Cat. #R250-01). Cells were cryo preserved at a concentration of 2×10^7 cells/mL, in 90% Charcoal/Dextran FBS and 10% DMSO, and frozen in liquid nitrogen at a low passage number.
# For the pERK assay, 2×10^7 cells/mL cryopreserved human and mouse cells were thawed rapidly in a 37° C. water bath and added to a T-225 flask containing 50 mL growth medium. The flasks were placed in a tissue culture incubator overnight (37° C., 5% CO2). The next day, cells were harvested with trypsin (Gibco Cat. #25300-054), resuspended in serum-containing growth medium and counted using a Cellometer and volume adjusted to a concentration of 0.6×10^6cells/mL. Cells were plated into 384-well clear bottom tissue culture plates (BD Cat. #353962) at 50 μL/well, for a density of 30,000 cells/well using a MULTIDROP® and incubated for 16-18 hours (overnight) at 37° C. with 5% CO2. The next day, cells were serum starved in 30 μL of F-12 media without any serum or antibiotics for 2 hours at 37° C.
# Test compounds were 3-fold, 11-point serially diluted in DMSO in a REMP assay plate (Matrix Cat. #4307) by Tecan and 5 μL was transferred into an ECHO source plate (LABCYTE® Cat. #LC-0200). Cells were then stimulated with 50 nL of compound dilutions using ECHO liquid handler for 7 minutes at 37° C. Compounds ranged from final assay concentrations of 33.33 μM to 0.56 nM.
# The media was then dumped and cells lysed with 20 μL of 1× Lysis buffer from the AlphaScreen SureFire Phospho-ERK 1/2 Kit (Perkin Elmer Cat. #6760617M). The lysis buffer was diluted 5-fold with water before use. The plate was agitated on a shaker for 10 minutes after which 2 μL was transferred into a 384-well white proxiplate (Perkin Elmer Cat. #6008289). The SureFire assay reagent mix was prepared by mixing 60 parts Reaction Buffer, 10 parts Activation Buffer, 1 part Donor Beads, 1 part Acceptor Beads (Perkin Elmer Cat. #TGRES10K). 3.5 μL/well of this reagent mix was manually added to the proxiplate with a multichannel pipettor. Plates were spun down at 1000 rpm for 2 minutes, followed by light-protected incubation at room temperature for 2 hours. The plates were read on the Alpha-technology compatible Envision multilabel plate reader using AlphaScreen protocol according to manufacturer's specifications. The agonist effect of compounds was expressed as 100×(average sample−average blank)/(average total−average blank) where sample is the luminescence activity in the presence of test compound, blank is equal to the luminescence activity in the presence of DMSO control and the total is signal induced by 50 μM linolenic acid as reference compound. Activation data for the test compound over a range of concentrations was plotted as percentage activation of the test compound (100%=maximum response). After correcting for background, EC50 values were determined The EC50 is defined as the concentration of test compound which produces 50% of the maximal response and was quantified using the 4 parameter logistic equation to fit the data.
# The human and mouse GPR120-mediated intracellular phosphorylated ERK assays were also established using CHO-K1 cells stably transfected with the short form of human or mouse GPR120 receptor. […]
row,SMILES,EC50 [nM]
1,"O=C(O)COCCC12CCC(c3cccc(Oc4cccc(F)c4)c3)(CC1)OC2 [Example 45, 2-(2-(1-(3-(3-fluorophenoxy)phenyl)-2-oxabicyclo[2.2.2]octan-4-yl)ethoxy) acetic acid]",280
2,"N#Cc1cccc(Oc2cccc(C34CCC(CCOCC(=O)O)(CC3)CO4)c2)c1 [Example 46, 2-(2-(1-(3-(3-Cyanophenoxy)phenyl)-2-oxabicyclo[2.2.2]octan-4-yl)ethoxy)acetic acid]",2570
3,"O=C(O)COCCC12CCC(c3cccc(OS(=O)(=O)C(F)(F)F)c3)(CC1)OC2 [Example 47, 2-(2-(1-(3-(Trifluoromethylsulfonyloxy)phenyl)-2-oxabicyclo[2.2.2]octan-4-yl)ethoxy)acetic acid]",1030
4,"Cc1nc(-c2cccc(C34CCC(CCOCC(=O)O)(CC3)CO4)c2)no1 [Example 48, 2-(2-(1-(3-(5-Methyl-1,2,4-oxadiazol-3-yl)phenyl)-2-oxabicyclo[2.2.2]octan-4-yl)ethoxy)acetic acid]",6760
5,"O=C(O)COCCC12CCC(c3cccc(C(F)(F)F)c3)(CC1)OC2 [Example 49, 2-(2-(1-(3-(Trifluoromethyl)phenyl)-2-oxabicyclo[2.2.2]octan-4-yl)ethoxy)acetic acid]",3310
6,"O=C(O)COCCC12CCC(c3cccc(Cc4ccccc4)c3)(CC1)OC2 [Example 50, 2-(2-(1-(3-Benzylphenyl)-2-oxabicyclo[2.2.2]octan-4-yl)ethoxy)acetic acid]",1360
7,"O=C(O)COCCC12CCC(c3cccc(OCC4CCC4)c3)(CC1)OC2 [Example 51, 2-(2-(1-(3-(Cyclobutylmethoxy)phenyl)-2-oxabicyclo[2.2.2]octan-4-yl)ethoxy)acetic acid]",1090
8,"O=C(O)COCCC12CCC(c3cccc(OCC4CCCCC4)c3)(CC1)OC2 [Example 52, 2-(2-(1-(3-(Cyclohexylmethoxy)phenyl)-2-oxabicyclo[2.2.2]octan-4-yl)ethoxy)acetic acid]",4340
9,"O=C(O)COCCC12CCC(c3cc(F)cc(OCC(F)(F)F)c3)(CC1)OC2 [Example 54, 2-(2-(1-(3-Fluoro-5-(2,2,2-trifluoroethoxy)phenyl)-2-oxabicyclo[2.2.2]octan-4-yl)ethoxy)acetic acid]",3470
10,"O=C(O)COCCC12CCC(c3cc(F)cc(Oc4cccc(F)c4)c3)(CC1)OC2 [Example 55, 2-(2-(1-(3-Fluoro-5-(3-fluorophenoxy)phenyl)-2-oxabicyclo[2.2.2]octan-4-yl)ethoxy) acetic acid]",330
11,"OCC(O)CCC12CCC(c3cccc(Oc4ccccc4)c3)(CC1)OC2 (centres unmarked) [Example 56, 4-(1-(3-Phenoxyphenyl)-2-oxabicyclo[2.2.2]octan-4-yl)butane-1,2-diol]",610
12,"OCCCCC12CCC(c3cccc(Oc4ccccc4)c3)(CC1)OC2 [Example 57, 4-(1-(3-Phenoxyphenyl)-2-oxabicyclo[2.2.2]octan-4-yl)butan-1-ol]",1880
13,"O=C(O)C1CC1CCC12CCC(c3cccc(OC4CCCCO4)c3)(CC1)OC2 (centres unmarked) [Example 61, 2-(2-(1-(3-(Tetrahydro-2H-pyran-2-yloxy)phenyl)-2-oxabicyclo[2.2.2]octan-4-yl)ethyl) cyclopropanecarboxylic acid]",5230
14,"COc1ccc(Oc2cccc(C34CCC(CC[C@@H]5C[C@H]5C(=O)O)(CC3)CO4)c2)cc1 [Example 71, (1R,2R)-2-(2-(1-(3-(4-methoxy-phenoxy)phenyl)-2-oxabicyclo[2.2.2]octan-4-yl)ethyl)cyclo-propane carboxylic acid]",1170
15,"O=C(O)[C@@H]1C[C@H]1CCC12CCC(c3cccc(Oc4cc(F)cc(F)c4)c3)(CC1)OC2 [Example 72, (1R,2R)-2-(2-(1-(3-(3,5-difluorophenoxy)phenyl)-2-oxabicyclo[2.2.2]octan-4-yl)ethyl) cyclopropanecarboxylic acid]",490
16,"O=C(O)[C@@H]1C[C@H]1CCC12CCC(c3cccc(Oc4ccc(F)c(F)c4)c3)(CC1)OC2 [Example 73, (1R,2R)-2-(2-(1-(3-(3,4-difluorophenoxy)phenyl)-2-oxabicyclo[2.2.2]octan-4-yl)ethyl) cyclopropanecarboxylic acid]",540
17,"O=C(O)[C@@H]1C[C@H]1CCC12CCC(c3cccc(Oc4ccc(O)cc4)c3)(CC1)OC2 [Example 74, (1R,2R)-2-(2-(1-(3-(4-hydroxy-phenoxy)phenyl)-2-oxabicyclo[2.2.2]octan-4-yl)ethyl)cyclo-propanecarboxylic acid]",2530
18,"O=C(O)COCCC12CCC(c3cccc(Oc4ccc(F)c(F)c4)c3)(CC1)OC2 [Example 75, 2-(2-(1-(3-(3,4-difluoro-phenoxy)phenyl)-2-oxabicyclo[2.2.2]octan-4-yl)ethoxy)acetic acid]",400
19,"O=C(O)COCCC12CCC(c3cccc(Oc4cc(F)cc(F)c4)c3)(CC1)OC2 [Example 76, 2-(2-(1-(3-(3,5-difluorophenoxy)phenyl)-2-oxabicyclo[2.2.2]octan-4-yl)ethoxy)acetic acid]",420
20,"Cc1ccc(Oc2cccc(C34CCC(CCOCC(=O)O)(CC3)CO4)c2)cc1F [Example 77, 2-(2-(1-(3-(3-fluoro-4-methylphenoxy)phenyl)-2-oxabicyclo[2.2.2]octan-4-yl)ethoxy)acetic acid]",230
21,"Cc1cc(Oc2cccc(C34CCC(CCOCC(=O)O)(CC3)CO4)c2)ccc1F [Example 78, 2-(2-(1-(3-(4-fluoro-3-methylphenoxy)phenyl)-2-oxabicyclo[2.2.2]octan-4-yl)ethoxy)acetic acid]",490
22,"O=C(O)COCCC12CCC(c3cc(F)cc(Oc4ccc(F)c(F)c4)c3)(CC1)OC2 [Example 79, 2-(2-(1-(3-(3,4-difluorophenoxy)-5-fluorophenyl)-2-oxabicyclo [2.2.2]octan-4-yl)ethoxy) acetic acid]",550
23,"Cc1cc(Oc2cc(F)cc(C34CCC(CCOCC(=O)O)(CC3)CO4)c2)ccc1F [Example 81, 2-(2-(1-(3-fluoro-5-(4-fluoro-3-methylphenoxy)phenyl)-2-oxabicyclo [2.2.2]octan-4-yl)ethoxy) acetic acid]",520
24,"COc1cccc(Oc2cc(F)cc(C34CCC(CCOCC(=O)O)(CC3)CO4)c2)c1 [Example 82, 2-(2-(1-(3-fluoro-5-(3-methoxyphenoxy)phenyl)-2-oxabicyclo[2.2.2]octan-4-yl)ethoxy)acetic acid]",810
25,"Cc1ccc(Oc2cc(F)cc(C34CCC(CCOCC(=O)O)(CC3)CO4)c2)cc1 [Example 83, 2-(2-(1-(3-fluoro-5-(p-tolyloxy)phenyl)-2-oxabicyclo[2.2.2]octan-4-yl)ethoxy)acetic acid]",320
26,"COc1cc(F)cc(Oc2cc(F)cc(C34CCC(CCOCC(=O)O)(CC3)CO4)c2)c1 [Example 84, 2-(2-(1-(3-fluoro-5-(3-fluoro-5-methoxyphenoxy)phenyl)-2-oxabicyclo [2.2.2]octan-4-yl)ethoxy) acetic acid]",470
